Consider 17 compounds from PubChem BioAssay (NCI).

Among the test systems are A549 NSCLC; BT-549 breast; HCC-2998 colon; NCI-H460 lung; OVCAR-3 ovarian; OVCAR-5 ovarian; SR leukemia; T-47D breast; U251 CNS; UO-31 renal.
What all share (test): NCI-60 cell line screen, 48 h

Several values for one entry are separate records, joined by “and”; a condition that tells them apart may be missing. Equal values may be shown once.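 Values below derive from 48-hour exposures of cells grown in 96-well plates, with endpoints linearly interpolated between the two concentrations bracketing the appropriate inhibition level. At the GI50, growth is halved. At the TGI there is no net growth.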 Bounds are passed on as bounds.

As for `CCC[N+](C)(C)CCCNC(=O)c1c(O)c2ccccc2[nH]c1=O`, the TGI in the assay with A549 NSCLC, in the assay with BT-549 breast, in the assay on HCC-2998 colon, in the assay on NCI-H460 lung, with OVCAR-3 ovarian and in the assay with OVCAR-5 ovarian was more than 100 µM throughout. The TGI in the assay on SR leukemia, with T-47D breast, in the assay with U251 CNS and with UO-31 renal was more than 100 µM in each case.
For the compound `N#Cc1ccc(-c2ccc(Cl)cc2)n(C2OC(CO)C(O)C(O)C2O)c1=S` (stereo not drawn), the TGI in the assay on A549 NSCLC, with BT-549 breast, with HCC-2998 colon, in the assay on NCI-H460 lung, with OVCAR-3 ovarian and in the assay on OVCAR-5 ovarian was more than 100 µM in each case. For the same compound, the TGI in the assay on SR leukemia, in the assay with T-47D breast, with U251 CNS and in the assay on UO-31 renal was more than 100 µM in each case. Also, the GI50 in the assay on BT-549 breast is > 100 µM and 24.9 µM; in the assay on U251 CNS it was > 100 µM and 20 µM.
Turning to `Cc1cnc2c(c1)C(=O)N(c1ccc(Oc3ccccc3)cc1)S2(=O)=O`, the TGI in the assay with A549 NSCLC, in the assay on BT-549 breast, in the assay on HCC-2998 colon, with NCI-H460 lung, in the assay on OVCAR-3 ovarian and in the assay on OVCAR-5 ovarian was more than 100 µM throughout. In addition, the TGI with SR leukemia, in the assay on T-47D breast, in the assay with U251 CNS and with UO-31 renal was more than 100 µM in each case.
Turning to `O=C(CCCCCNC(=O)c1ccc(Cl)cc1)NO`, the TGI with A549 NSCLC is 81.9 µM; with BT-549 breast, more than 100 µM; in the assay with HCC-2998 colon, 18.3 µM; with NCI-H460 lung, 39.6 µM; in the assay on OVCAR-3 ovarian, 13 µM; in the assay with OVCAR-5 ovarian it was 8.43 µM. Besides, the TGI in the assay on SR leukemia came to 53.7 µM; in the assay with T-47D breast, 5.14 µM; with U251 CNS, 24 µM; in the assay with UO-31 renal, 37.8 µM.
Consider `N#CCCN(CCCCN(CCC#N)C(=O)Nc1ccccc1)C(=O)Nc1ccccc1`, for which the TGI in the assay on A549 NSCLC, in the assay with BT-549 breast, in the assay with HCC-2998 colon, in the assay with NCI-H460 lung, in the assay on OVCAR-3 ovarian and in the assay with OVCAR-5 ovarian was more than 100 µM in each case. The TGI in the assay on SR leukemia, in the assay with T-47D breast, with U251 CNS and in the assay with UO-31 renal was more than 100 µM in each case.
As for `CCOc1ccccc1N=NC1C(=O)N(C(=O)CC(=O)Nc2ccccc2C)N=C1C` (stereo not drawn), the TGI in the assay on A549 NSCLC, with BT-549 breast, in the assay with HCC-2998 colon, with NCI-H460 lung, in the assay with OVCAR-3 ovarian and in the assay on OVCAR-5 ovarian was more than 100 µM each time. For the same compound, the TGI in the assay with SR leukemia is more than 100 µM; in the assay on T-47D breast, more than 100 µM; in the assay on U251 CNS, 49.1 µM; with UO-31 renal it was 63.6 µM.
Consider `CCCCCCCCCCCC(=O)N(CCCCCCCCC)CC(O)C(O)C(OC1OC(CO)C(O)C(O)C1O)C(O)CO` (stereo not drawn), for which the TGI in the assay on A549 NSCLC amounted to 43.5 µM; in the assay with BT-549 breast, 36.9 µM; in the assay on HCC-2998 colon it was 32 µM; in the assay on NCI-H460 lung, 35.6 µM; in the assay with OVCAR-3 ovarian, 40.3 µM; with OVCAR-5 ovarian, 49.3 µM. The TGI was found to be 42.4 µM with SR leukemia, 44.3 µM with T-47D breast, 35.5 µM in the assay with U251 CNS and 30.9 µM with UO-31 renal.
On to `CCOC(=O)c1ccc2nc3n(c2c1)C(c1c(F)cccc1F)SC3` (stereo not drawn), for which the TGI with A549 NSCLC, in the assay on BT-549 breast, in the assay on HCC-2998 colon, in the assay on NCI-H460 lung, in the assay with OVCAR-3 ovarian and with OVCAR-5 ovarian was more than 100 µM in each case. Besides, the TGI in the assay on SR leukemia, with T-47D breast, with U251 CNS and in the assay on UO-31 renal was more than 100 µM each time.
For the compound `C[Si](C)(C)OC1(C#N)c2ccccc2CCCC12CCCC2` (stereo not drawn), the TGI with A549 NSCLC is more than 100 µM; with BT-549 breast, more than 100 µM; in the assay on HCC-2998 colon, 44 µM; in the assay on NCI-H460 lung, more than 100 µM; in the assay with OVCAR-3 ovarian, more than 100 µM; in the assay with OVCAR-5 ovarian, more than 100 µM. The TGI with SR leukemia is more than 100 µM; in the assay on T-47D breast, 85.5 µM; in the assay with U251 CNS it was 92.2 µM; in the assay with UO-31 renal, more than 100 µM.
With `O=C(CC(=O)N1N=C(c2ccccc2)C(N=Nc2ccc(S(=O)(=O)CCOS(=O)(=O)O)cc2)C1=O)Nc1ccc(Cl)cc1` (stereo not drawn), the TGI in the assay on A549 NSCLC, with BT-549 breast, with HCC-2998 colon, in the assay with NCI-H460 lung, with OVCAR-3 ovarian and with OVCAR-5 ovarian was more than 100 µM throughout. Further, the TGI with SR leukemia, in the assay with T-47D breast, with U251 CNS and in the assay on UO-31 renal was more than 100 µM each time.
`NC(=Nc1ccccc1)N/N=C/c1c[nH]c2ccccc12`: the TGI worked out at 15.4 µM in the assay on A549 NSCLC; 16.9 µM in the assay with BT-549 breast; 2.35 µM in the assay on HCC-2998 colon; 4.41 µM in the assay with NCI-H460 lung; 0.314 µM in the assay on OVCAR-3 ovarian; 15 µM with OVCAR-5 ovarian. Besides, the TGI in the assay on SR leukemia was more than 50.1 µM; in the assay with T-47D breast, 6.89 µM; in the assay with U251 CNS it was 2.61 µM; with UO-31 renal, 12.9 µM.
In the case of `COC(=O)NC(Cc1ccccc1)NC(=O)OC(C)(C)C` (stereo not drawn), the TGI in the assay with A549 NSCLC, in the assay on BT-549 breast, in the assay with HCC-2998 colon, in the assay with NCI-H460 lung, in the assay on OVCAR-3 ovarian and in the assay on OVCAR-5 ovarian was more than 100 µM in each case. The TGI in the assay on SR leukemia, in the assay on T-47D breast, in the assay with U251 CNS and with UO-31 renal was more than 100 µM each time.
As to `CC1(C)CCC2=C(O1)c1ccccc1C(=Nc1ccc([N+](=O)[O-])cc1)C2=O`, the TGI with A549 NSCLC turned out to be 30 µM; in the assay on BT-549 breast it was 44 µM; in the assay on HCC-2998 colon, 32.2 µM; with NCI-H460 lung, 29.1 µM; in the assay with OVCAR-3 ovarian it was 25.3 µM; in the assay with OVCAR-5 ovarian it was 28.2 µM. Also, the TGI was 37.7 µM with SR leukemia, 31 µM in the assay on T-47D breast, 28.9 µM with U251 CNS and 22.4 µM with UO-31 renal. In addition, in the assay with OVCAR-5 ovarian, the GI50 is 14.5 µM.
`N=C1C=CC(=C(c2ccc(N)cc2)c2ccc(N)cc2)C=C1`: the TGI was 32.1 µM in the assay with A549 NSCLC; 7.97 µM with BT-549 breast; 18.6 µM in the assay on HCC-2998 colon; 36.9 µM in the assay on NCI-H460 lung; 25.2 µM with OVCAR-3 ovarian; 50.3 µM in the assay with OVCAR-5 ovarian. For the same compound, the TGI was more than 64.9 µM with SR leukemia, 8.74 µM with T-47D breast, 22.6 µM with U251 CNS and 29.2 µM in the assay on UO-31 renal.
In the case of `Clc1nc2nc(N3CCNCC3)nc(N3CCCC3)c2[nH]1`, the TGI was found to be 33.1 µM in the assay on A549 NSCLC; 89.8 µM in the assay with BT-549 breast; 29.5 µM in the assay with HCC-2998 colon; 32.7 µM with NCI-H460 lung; 33.9 µM in the assay with OVCAR-3 ovarian; 44.3 µM in the assay on OVCAR-5 ovarian. Further, the TGI was determined as 38.7 µM with SR leukemia, 33.6 µM in the assay with T-47D breast, 31.8 µM in the assay on U251 CNS and 29.6 µM in the assay with UO-31 renal.
For `CCOC(=O)c1nc2ccccc2nc1Nc1ccc(C(=O)OC)s1`, the TGI in the assay with A549 NSCLC, in the assay with BT-549 breast, in the assay on HCC-2998 colon, in the assay on NCI-H460 lung, in the assay with OVCAR-3 ovarian and in the assay with OVCAR-5 ovarian was more than 100 µM throughout. Moreover, the TGI with SR leukemia, in the assay with T-47D breast, in the assay on U251 CNS and in the assay on UO-31 renal was more than 100 µM each time.
On to `C=CC(=O)N1C/C(=C\c2ccc(OC)cc2)C(=O)/C(=C/c2ccc(OC)cc2)C1`, for which the TGI with A549 NSCLC turned out to be 8.16 µM; in the assay on BT-549 breast, 6.24 µM; in the assay with HCC-2998 colon, 2.87 µM; in the assay on NCI-H460 lung, 6.82 µM; in the assay with OVCAR-3 ovarian, 5.67 µM; in the assay on OVCAR-5 ovarian, 16.2 µM. For the same compound, the TGI was more than 100 µM with SR leukemia, more than 100 µM in the assay on T-47D breast, 6.43 µM in the assay with U251 CNS and 3.52 µM in the assay with UO-31 renal.
